Legend:
PSMA protein = target: T1, PSMA protein (Homo sapiens, UniProt Q04609); assay: Measurement of binding capacity: competition with [125I]15 on 22RV1 cells; conditions: for IC50: [125I]15 0.1 nM, 37° C., 2 hours, read-out: IC50 (Mean ± SD)
T1 construct: host or cells: 22RV1 human prostate cancer cells
Method: RPMI1640 supplemented with 1% BSA (bovine serum albumin) was used as a buffer solution.
[^125I]15 (0.1 nM) was added to a vessel containing 22RV1 cells (5×10^4), to which [^18F]1-1 to [^18F]1-9 compounds were loaded at 9 concentrations ([…]), followed by stirring at 37° C. for 2 hours. Upon completion of the stirring, the vessel was washed with 2 mL of PBS solution three times, and then the remaining radioactivity and 50% inhibition concentration (nonlinear regression method) were measured using a gamma counter (2480 WIZARD2 Gamma Counter PerkinElmer Co., MA) and GraphPad Prism (GraphPad Software, Inc., CA).

PSMA+ PC-3 PIP tumors = assay: MicroPET/CT in mice transplanted with prostate cancer cell lines; format: in vivo, nude mouse; conditions: for tumor binding (MicroPET/CT, FIG. 3): nude mouse with PC-3 PIP and PC-3 flu tumors; for excretion (MicroPET/CT, FIG. 3): nude mouse, intravenous, 60 minutes imaging
PC-3 PIP = assay: Measurement of cellular internalization; format: cell-based, human
Description: Then, the membrane protein and the cytoplasmic protein were separated by using Mem-PER Plus Membrane Protein Extraction Kit and NE-PER Nuclear and Cytoplasmic Extraction Kit (ThermoFisher Scientific). The internalization rate (%) was confirmed by obtaining the radioactivity ratio in the cytoplasmic protein to the total radioactivity.

PSMA+ PC-3 PIP tumor = assay: Biodistribution test with prostate cancer model mouse
[1] = 0.5 h after tail vein injection

T1 sequence (Q04609 whole entry): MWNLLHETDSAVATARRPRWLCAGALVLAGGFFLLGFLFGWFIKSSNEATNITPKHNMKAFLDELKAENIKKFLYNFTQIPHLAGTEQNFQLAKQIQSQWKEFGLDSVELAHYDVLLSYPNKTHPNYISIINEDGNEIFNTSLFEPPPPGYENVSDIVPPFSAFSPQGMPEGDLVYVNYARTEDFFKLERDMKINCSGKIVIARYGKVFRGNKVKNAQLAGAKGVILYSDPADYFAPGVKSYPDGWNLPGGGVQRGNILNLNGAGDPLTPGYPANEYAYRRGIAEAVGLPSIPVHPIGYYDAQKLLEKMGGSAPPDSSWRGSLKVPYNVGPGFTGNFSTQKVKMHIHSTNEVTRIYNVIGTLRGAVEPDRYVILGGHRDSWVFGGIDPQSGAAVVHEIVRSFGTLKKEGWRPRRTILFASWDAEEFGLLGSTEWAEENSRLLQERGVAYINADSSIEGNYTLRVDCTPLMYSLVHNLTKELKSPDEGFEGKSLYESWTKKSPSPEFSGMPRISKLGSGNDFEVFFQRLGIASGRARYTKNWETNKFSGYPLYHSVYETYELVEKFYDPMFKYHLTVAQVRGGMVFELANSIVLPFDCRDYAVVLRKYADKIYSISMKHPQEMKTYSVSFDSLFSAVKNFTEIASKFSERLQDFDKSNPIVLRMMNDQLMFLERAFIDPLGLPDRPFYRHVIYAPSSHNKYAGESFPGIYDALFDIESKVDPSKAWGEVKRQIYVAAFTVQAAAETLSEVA

Compound: O=C(O)CC[C@H](NC(=O)N[C@@H](CCCCNC(=O)Nc1ccc(I)cc1)C(=O)O)C(=O)O [Comparative Example 1, reference compound]
- IC50 (PSMA protein): 30.7 ± 10.2 nM

Compound: O=C(O)CC[C@H](NC(=O)N[C@@H](CCCCNC(=O)Nc1ccc([123I])cc1)C(=O)O)C(=O)O [Comparative Example 1, reference compound]
- tumor binding (MicroPET/CT, FIG. 3) (PSMA+ PC-3 PIP tumors): selectively bound to PSMA+PC-3 PIP tumors
- excretion (MicroPET/CT, FIG. 3) (PSMA+ PC-3 PIP tumors): rapidly excreted through the kidneys and bladder
- % Internalization ratio (Mean ± SD) (PC-3 PIP; 30 min): 91.27 ± 4.03%
- % Internalization ratio (Mean ± SD) (PC-3 PIP; 60 min): 86.91 ± 8.13%
- % Internalization ratio (Mean ± SD) (PC-3 PIP; 120 min): 94.31 ± 2.94%
- % Internalization ratio (Mean ± SD) (PC-3 PIP; 240 min): 95.01 ± 2.58%

Compound: O=C(O)CC[C@H](NC(=O)N[C@@H](CCCCNC(=O)NCc1cn(CCF)nn1)C(=O)O)C(=O)O [Example 7-1]
- IC50 (PSMA protein): 635 ± 263 nM

Compound: O=C(O)CC[C@H](NC(=O)N[C@@H](CCCCNC(=O)NCc1cn(CCOCC[18F])nn1)C(=O)O)C(=O)O [Example 7-4]
- IC50 (PSMA protein): 57 ± 33 nM

Compound: O=C(O)CC[C@H](NC(=O)N[C@@H](CCCCNC(=O)N(Cc1ccncc1)Cc1cn(CCOCC[18F])nn1)C(=O)O)C(=O)O [Example 7-5]
- IC50 (PSMA protein): 11.8 nM

Compound: O=C(O)CC[C@H](NC(=O)N[C@@H](CCCCNC(=O)N(Cc1cn(CCOCC[18F])nn1)c1ccncc1)C(=O)O)C(=O)O [Example 7-6]
- tumor binding (MicroPET/CT, FIG. 3) (PSMA+ PC-3 PIP tumors): selectively bound to PSMA+PC-3 PIP tumors
- excretion (MicroPET/CT, FIG. 3) (PSMA+ PC-3 PIP tumors): rapidly excreted through the kidneys and bladder
- % Internalization ratio (Mean ± SD) (PC-3 PIP; 30 min): 93.30 ± 2.11%
- % Internalization ratio (Mean ± SD) (PC-3 PIP; 60 min): 91.89 ± 5.76%
- % Internalization ratio (Mean ± SD) (PC-3 PIP; 120 min): 94.77 ± 2.92%
- % Internalization ratio (Mean ± SD) (PC-3 PIP; 240 min): 96.32 ± 1.08%
- binding capacity higher than [18F]DCFPyL (Comparative Example 1) (PSMA protein): about 6 times
- binding to the PSMA protein (in words) (PSMA protein): most strongly bound
- IC50 (PSMA protein): 5.08 nM
- PIP to blood (PSMA+ PC-3 PIP tumor; [1]): 14.05 ± 3.61
- PIP to liver (PSMA+ PC-3 PIP tumor; [1]): 5.64 ± 6.10
- PIP to muscle (PSMA+ PC-3 PIP tumor; [1]): 13.00 ± 4.97
- PIP to spleen (PSMA+ PC-3 PIP tumor; [1]): 7.31 ± 3.34
- PIP/flu (PSMA+ PC-3 PIP tumor; [1]): 16.00 ± 5.68
- PIP to blood (PSMA+ PC-3 PIP tumor; 1 h after tail vein injection): 30.30 ± 17.05
- PIP to liver (PSMA+ PC-3 PIP tumor; 1 h after tail vein injection): 9.93 ± 13.26
- PIP to muscle (PSMA+ PC-3 PIP tumor; 1 h after tail vein injection): 20.11 ± 14.99
- PIP to spleen (PSMA+ PC-3 PIP tumor; 1 h after tail vein injection): 12.46 ± 16.18
- PIP/flu (PSMA+ PC-3 PIP tumor; 1 h after tail vein injection): 23.08 ± 14.91
- PIP to blood (PSMA+ PC-3 PIP tumor; 2 h after tail vein injection): 36.90 ± 9.52
- PIP to liver (PSMA+ PC-3 PIP tumor; 2 h after tail vein injection): 13.71 ± 12.60
- PIP to muscle (PSMA+ PC-3 PIP tumor; 2 h after tail vein injection): 38.11 ± 14.83
- PIP to spleen (PSMA+ PC-3 PIP tumor; 2 h after tail vein injection): 25.98 ± 8.66
- PIP/flu (PSMA+ PC-3 PIP tumor; 2 h after tail vein injection): 33.32 ± 14.64
- PIP to blood (PSMA+ PC-3 PIP tumor; 4 h after tail vein injection): 42.90 ± 18.49
- PIP to liver (PSMA+ PC-3 PIP tumor; 4 h after tail vein injection): 19.77 ± 11.81
- PIP to muscle (PSMA+ PC-3 PIP tumor; 4 h after tail vein injection): 45.39 ± 22.54
- PIP to spleen (PSMA+ PC-3 PIP tumor; 4 h after tail vein injection): 32.51 ± 10.12
- PIP/flu (PSMA+ PC-3 PIP tumor; 4 h after tail vein injection): 35.69 ± 11.64
